Assays:
[1] = suitable for use in carbonated beverages and many other foods; cited from earlier work
[2] = solubility in washing liquid (95% ethanol); assay type: physicochemical; conditions: in 95% ethanol (washing liquid)
Description: The suspension of 2.5 g crystals in 100 ml water was heated to 75° C. for 10 minutes to dissolve the crystals. The solution was cooled to 20° C. at 10° C./h and incubated at this temperature overnight. The crystals formed were filtered by vacuum and washed with two cake volumes of 95% ethanol
The choice of washing liquid was because of the low rebaudioside M solubility in it. The crystals were dried at 60° C. under vacuum overnight. […] The crystals contained >95% Reb-M as determined by LC-UV and the level of all KAG was below the limit of detection of LC-MS.

[3] = spontaneous crystallization from nanofiltration retentate; assay type: physicochemical; conditions: aqueous nanofiltration retentate of fermentation broth
Description: The fermentation broth after laboratory scale fermentations was processed as follows: • centrifugation 30 min at 4000×g; • pH in the supernatant was adjusted to 3.5 and supernatant was heated 30 min at 70° C.; • the heated supernatant was clarified by centrifugation; • the clarified supernatant was ultrafiltrated through a membrane with 10 kDa cut-off; and • the permeate after ultrafiltration was nanofiltrated using a membrane with 150-300 Da cut-off.
Finally, 14.5 g of dried crystals were isolated out of 0.871 kg NF retentate.

Type II diabetics = conditions: studies suggest; cited from earlier work
[4] = test system: mildly hypertensive patients; conditions: studies suggest; cited from earlier work
[5] = relative to sucrose; cited from earlier work

Which “heat and pH stability” value [1] does the source give for C=C1C[C@@]23CC[C@H]4[C@@](C)(CCC[C@@]4(C)C(=O)O[C@@H]4O[C@H](CO)[C@@H](O)[C@H](O)[C@H]4O)[C@@H]2CC[C@]1(O[C@@H]1O[C@H](CO)[C@@H](O)[C@H](O[C@@H]2O[C@H](CO)[C@@H](O)[C@H](O)[C@H]2O)[C@H]1O[C@@H]1O[C@H](CO)[C@@H](O)[C@H](O)[C@H]1O)C3 [rebaudioside A] here?
The value was “heat and pH stable”.

With C=C1C[C@@]23CC[C@H]4[C@@](C)(CCC[C@@]4(C)C(=O)O[C@@H]4O[C@H](CO)[C@@H](O)[C@H](O[C@@H]5O[C@H](CO)[C@@H](O)[C@H](O)[C@H]5O)[C@H]4O[C@@H]4O[C@H](CO)[C@@H](O)[C@H](O)[C@H]4O)[C@@H]2CC[C@]1(O[C@@H]1O[C@H](CO)[C@@H](O)[C@H](O[C@@H]2O[C@H](CO)[C@@H](O)[C@H](O)[C@H]2O)[C@H]1O[C@@H]1O[C@H](CO)[C@@H](O)[C@H](O)[C@H]1O)C3 [rebaudioside M] as the compound, how does the solubility [2] read?
The solubility was “low”.

And the “concentration in the retentate of nanofiltration at which crystallization begins spontaneously” value [3]?
The value was “exceeded 30 g/I”.

For C=C1C[C@@]23CC[C@H]4[C@@](C)(CCC[C@@]4(C)C(=O)O[C@@H]4O[C@H](CO)[C@@H](O)[C@H](O)[C@H]4O)[C@@H]2CC[C@]1(O[C@@H]1O[C@H](CO)[C@@H](O)[C@H](O)[C@H]1O[C@@H]1O[C@H](CO)[C@@H](O)[C@H](O)[C@H]1O)C3 [Stevioside], which “effect on blood glucose levels” value (Type II diabetics) is on record?
The value was “can reduce blood glucose levels”.

And the “heat and pH stability” value [1]?
The value was “heat and pH stable”.

What about the “effect on blood pressure” value [4] of the same compound?
Its value is “can reduce blood pressure”.

For C=C1C[C@@]23CC[C@H]4[C@@](C)(CCC[C@@]4(C)C(=O)O[C@@H]4O[C@H](CO)[C@@H](O)[C@H](O)[C@H]4O[C@@H]4O[C@H](CO)[C@@H](O)[C@H](O)[C@H]4O)[C@@H]2CC[C@]1(O[C@@H]1O[C@H](CO)[C@@H](O)[C@H](O[C@@H]2O[C@H](CO)[C@@H](O)[C@H](O)[C@H]2O)[C@H]1O[C@@H]1O[C@H](CO)[C@@H](O)[C@H](O)[C@H]1O)C3 [rebaudioside D], which “times sweeter than sucrose” value [5] is on record?
The value was “about 200 times”.

— patent publication US11878992B2, “Crystallization of steviol glycosides” (DSM IP Assets B.V., priority 2016, dated 2024)
